Measured values from ChEMBL document CHEMBL1926641, “Farinamycin, a quinazoline from Streptomyces griseus” (J Nat Prod, 2011).
Calls of active or inactive are those of the source. The calls are words filed in the database; no cut-off is given here.

Experiments:
[1] = test system: Escherichia coli; experiment: Antimicrobial activity against Escherichia coli SG 458 at <= 100 ug/ml by agar diffusion assay; type: functional, organism-based
[2] = test system: Bacillus subtilis; experiment: Antimicrobial activity against Bacillus subtilis ATCC 6633 at <= 100 ug/ml by agar diffusion assay; type: functional, organism-based
[3] = test system: Staphylococcus aureus; experiment: Antimicrobial activity against Staphylococcus aureus SG 511 at <= 100 ug/ml by agar diffusion assay; type: functional, organism-based
[4] = test system: Pseudomonas aeruginosa; experiment: Antimicrobial activity against Pseudomonas aeruginosa K 799/61 at <= 100 ug/ml by agar diffusion assay; type: functional, organism-based
[5] = test system: Mycolicibacterium vaccae; experiment: Antimicrobial activity against Mycobacterium vaccae IMET 10670 at <= 100 ug/ml by agar diffusion assay; type: functional, organism-based
[6] = test system: Sporobolomyces salmonicolor; experiment: Antimicrobial activity against Sporobolomyces salmonicolor SBUG 549 at <= 100 ug/ml by agar diffusion assay; type: functional, organism-based
[7] = test system: Candida albicans; experiment: Antifungal activity against Candida albicans BMSY 212 at <= 100 ug/ml by agar diffusion assay; type: functional, organism-based
[8] = test system: Penicillium chrysogenum; experiment: Antifungal activity against Penicillium notatum JP 36 at <= 100 ug/ml by agar diffusion assay; type: functional, organism-based
[9] = test system: K562; experiment: Cytotoxicity against human K562 cells at <= 50 ug/ml; type: functional, cell-based
[10] = test system: HUVEC; experiment: Antiproliferative activity against human HUVEC cells at <= 50 ug/ml; type: cell-based
[11] = test system: HeLa; experiment: Cytotoxicity against human HeLa cells at <= 50 ug/ml; type: functional, cell-based

In the case of `NC(=O)C1=C(N)[C@@H](O)[C@H](O)[C@@H](Nc2cc(-c3nc4c(O)cccc4c(=O)[nH]3)ccc2O)C1=O` [FARINAMYCIN], the Activity [1] is reported as “inactive”, the Activity [2] is reported as “inactive” and the Activity [3] is reported as “inactive”. For the same molecule, the Activity [4] was “inactive”, the Activity [5] was “inactive” and the Activity [6] was “inactive”. The Activity [7] was “inactive”, the Activity [8] was “inactive” and the Activity [9] was “inactive”. The Activity [10] was “Non-toxic” and the Activity [11] was “inactive”.
